Experimental data published in paper PMC5218480 (PLoS ONE, 2017).

Tested on: MV-4-11 cells
Assay: Gene expression microarray analysis (Affymetrix PrimeView) and GSEA
Format: cell-based, human
Set-up: RFU PODN (11730768_x_at) / Fold change /veh PODN (11730768_x_at) / RFU LINC00158 (11744669_a_at) / Fold change /veh LINC00158 (11744669_a_at) / RFU DUSP10 (11751237_a_at) / Fold change /veh DUSP10 (11751237_a_at) / RFU ID3 (11757404_x_at) / Fold change /veh ID3 (11757404_x_at) / RFU PLEKHG5 (11737974_s_at) / Fold change /veh PLEKHG5 (11737974_s_at) / RFU LRRC4B (11730491_at) / Fold change /veh LRRC4B (11730491_at) / RFU GIMAP4 (11747438_a_at) / Fold change /veh GIMAP4 (11747438_a_at) / RFU KRT8 (11758183_x_at) / Fold change /veh KRT8 (11758183_x_at) / RFU CNN1 (11734310_a_at) / Fold change /veh CNN1 (11734310_a_at) / RFU VPS37D (11726825_at) / Fold change /veh VPS37D (11726825_at) / RFU C10orf10 (11716522_x_at) / Fold change /veh C10orf10 (11716522_x_at) / RFU KIR2DL2 /// KIR2DL4 /// KIR2DL5A /// KIR2DL5B /// KIR2DS1 /// KIR2DS2 /// KIR2DS3 /// KIR2DS4 /// KIR3DL3 /// KIR3DL3 /// KIR3DS1 (11738374_at) / Fold change /veh KIR2DL2 /// KIR2DL4 /// KIR2DL5A /// KIR2DL5B /// KIR2DS1 /// KIR2DS2 /// KIR2DS3 /// KIR2DS4 /// KIR3DL3 /// KIR3DL3 /// KIR3DS1 (11738374_at) / RFU C1QL1 (11718748_at) / Fold change /veh C1QL1 (11718748_at) / RFU TMPRSS4 (11747572_a_at) / Fold change /veh TMPRSS4 (11747572_a_at) / RFU HAMP (11756126_x_at) / Fold change /veh HAMP (11756126_x_at) / RFU RNFT2 (11725882_a_at) / Fold change /veh RNFT2 (11725882_a_at) / RFU NR4A2 (11747474_a_at) / Fold change /veh NR4A2 (11747474_a_at) / RFU ABCC12 (11746883_a_at) / Fold change /veh ABCC12 (11746883_a_at) / RFU TMEM136 (11760407_x_at) / Fold change /veh TMEM136 (11760407_x_at) / RFU CLDN22 /// WWC2 (11732394_at) / Fold change /veh CLDN22 /// WWC2 (11732394_at) / RFU HLA-DPB1 (11760878_x_at) / Fold change /veh HLA-DPB1 (11760878_x_at) / RFU SPINT1 (11716480_a_at) / Fold change /veh SPINT1 (11716480_a_at) / RFU GAP43 (11754022_s_at) / Fold change /veh GAP43 (11754022_s_at) / RFU A4GNT (11735810_at) / Fold change /veh A4GNT (11735810_at) / RFU PRB3 (11715151_x_at) / Fold change /veh PRB3 (11715151_x_at) / RFU TUBB4B (11761932_at) / Fold change /veh TUBB4B (11761932_at) / RFU CAPN14 (11732068_a_at) / Fold change /veh CAPN14 (11732068_a_at) / RFU TMCC2 (11721928_a_at) / Fold change /veh TMCC2 (11721928_a_at) / RFU IRGQ (11745062_a_at) / Fold change /veh IRGQ (11745062_a_at) / RFU FAM174B (11720279_a_at) / Fold change /veh FAM174B (11720279_a_at) / RFU TMPRSS4 (11748680_a_at) / Fold change /veh TMPRSS4 (11748680_a_at) / RFU FAM212B (11763350_a_at) / Fold change /veh FAM212B (11763350_a_at) / RFU PLEKHG5 (11743358_a_at) / Fold change /veh PLEKHG5 (11743358_a_at) / RFU ZSCAN30 (11745921_a_at) / Fold change /veh ZSCAN30 (11745921_a_at) / RFU CMKLR1 (11741424_a_at) / Fold change /veh CMKLR1 (11741424_a_at) / RFU LOC101060620 /// MAPK8IP1 (11723275_at) / Fold change /veh LOC101060620 /// MAPK8IP1 (11723275_at) / RFU SPTSSB (11747773_x_at) / Fold change /veh SPTSSB (11747773_x_at) / RFU PRSS12 (11739890_at) / Fold change /veh PRSS12 (11739890_at) / RFU BIN1 (11741810_x_at) / Fold change /veh BIN1 (11741810_x_at) / RFU WNT11 (11732464_a_at) / Fold change /veh WNT11 (11732464_a_at) / RFU C10orf10 (11716521_a_at) / Fold change /veh C10orf10 (11716521_a_at) / RFU C5orf56 (11738089_at) / Fold change /veh C5orf56 (11738089_at) / RFU CYB561 (11721691_x_at) / Fold change /veh CYB561 (11721691_x_at) / RFU ANKRD19P (11752326_a_at) / Fold change /veh ANKRD19P (11752326_a_at) / RFU OR2T12 /// OR2T33 /// OR2T8 (11738714_s_at) / Fold change /veh OR2T12 /// OR2T33 /// OR2T8 (11738714_s_at) / RFU VCAN (11748164_a_at) / Fold change /veh VCAN (11748164_a_at) / RFU JSRP1 (11732532_at) / Fold change /veh JSRP1 (11732532_at) / RFU KRTAP10-11 (11738290_x_at) / Fold change /veh KRTAP10-11 (11738290_x_at) / RFU MYO3A (11730013_a_at) / Fold change /veh MYO3A (11730013_a_at) / RFU EBF3 (11725865_a_at) / Fold change /veh EBF3 (11725865_a_at) / RFU CAMK2N1 (11719241_x_at) / Fold change /veh CAMK2N1 (11719241_x_at) / RFU C5orf56 (11738088_a_at) / Fold change /veh C5orf56 (11738088_a_at) / RFU OLFML3 (11715873_a_at) / Fold change /veh OLFML3 (11715873_a_at) / RFU LOC100653217 /// NTM (11731650_a_at) / Fold change /veh LOC100653217 /// NTM (11731650_a_at) / RFU MAPK11 (11762145_a_at) / Fold change /veh MAPK11 (11762145_a_at) / RFU FIZ1 (11724087_x_at) / Fold change /veh FIZ1 (11724087_x_at) / RFU OASL (11726364_x_at) / Fold change /veh OASL (11726364_x_at) / RFU SOX15 (11748057_x_at) / Fold change /veh SOX15 (11748057_x_at) / RFU CD79A (11719716_a_at) / Fold change /veh CD79A (11719716_a_at) / RFU HIST1H1D (11736915_at) / Fold change /veh HIST1H1D (11736915_at) / RFU CASKIN2 (11723855_a_at) / Fold change /veh CASKIN2 (11723855_a_at) / RFU LOC730098 (11760151_x_at) / Fold change /veh LOC730098 (11760151_x_at) / RFU OR4N2 (11742367_at) / Fold change /veh OR4N2 (11742367_at) / RFU PRRT2 (11749266_a_at) / Fold change /veh PRRT2 (11749266_a_at) / RFU SNX32 (11753110_a_at) / Fold change /veh SNX32 (11753110_a_at) / RFU CDHR5 (11726645_a_at) / Fold change /veh CDHR5 (11726645_a_at) / RFU RCAN1 (11760418_a_at) / Fold change /veh RCAN1 (11760418_a_at) / RFU FAM167A (11723789_a_at) / Fold change /veh FAM167A (11723789_a_at) / RFU FAM26E (11764081_at) / Fold change /veh FAM26E (11764081_at) / RFU ISYNA1 (11749810_s_at) / Fold change /veh ISYNA1 (11749810_s_at) / RFU ACY1 (11761880_at) / Fold change /veh ACY1 (11761880_at) / RFU 11764098_at / Fold change /veh 11764098_at / RFU SAMD14 (11745864_x_at) / Fold change /veh SAMD14 (11745864_x_at) / RFU NPB (11741838_a_at) / Fold change /veh NPB (11741838_a_at) / RFU TMPRSS6 (11731388_a_at) / Fold change /veh TMPRSS6 (11731388_a_at) / RFU KRTAP10-2 (11738614_at) / Fold change /veh KRTAP10-2 (11738614_at) / RFU ARHGAP8 /// PRR5-ARHGAP8 (11727945_x_at) / Fold change /veh ARHGAP8 /// PRR5-ARHGAP8 (11727945_x_at) / RFU KRTAP5-7 /// NADSYN1 (11734609_at) / Fold change /veh KRTAP5-7 /// NADSYN1 (11734609_at) / RFU RASL12 (11751679_a_at) / Fold change /veh RASL12 (11751679_a_at) / RFU CDKN2B (11736163_a_at) / Fold change /veh CDKN2B (11736163_a_at) / RFU PRF1 (11729649_at) / Fold change /veh PRF1 (11729649_at) / RFU, ZNF638 /// ZNF638-IT1 / Fold change vs veh, ZNF638 /// ZNF638-IT1 / RFU, PANK3 / Fold change vs veh, PANK3 / RFU, SH3YL1 / Fold change vs veh, SH3YL1 / RFU, ZEB2 / Fold change vs veh, ZEB2 / RFU, NRIP1 / Fold change vs veh, NRIP1 / RFU, PTTG1IP / Fold change vs veh, PTTG1IP / RFU, CAPN2 / Fold change vs veh, CAPN2 / RFU, MED14 / Fold change vs veh, MED14 / RFU, SNORA58 / Fold change vs veh, SNORA58 / RFU, C1orf63 / Fold change vs veh, C1orf63 / RFU, LRRFIP1 / Fold change vs veh, LRRFIP1 / RFU, NDUFAF7 / Fold change vs veh, NDUFAF7 / RFU, SLC12A2 / Fold change vs veh, SLC12A2 / RFU, IBTK / Fold change vs veh, IBTK / RFU, ESF1 / Fold change vs veh, ESF1 / Fold change vs veh, TMEM50B / RFU, TAOK1 / Fold change vs veh, TAOK1 / RFU, ACBD3 / Fold change vs veh, ACBD3 / RFU, TMA16 / Fold change vs veh, TMA16 / RFU, RWDD3 / Fold change vs veh, RWDD3 / RFU, BCAT1 / Fold change vs veh, BCAT1 / RFU, EDEM3 / Fold change vs veh, EDEM3 / RFU, TMEM33 / Fold change vs veh, TMEM33 / RFU, WDR75 / Fold change vs veh, WDR75 / RFU, AHCTF1 / Fold change vs veh, AHCTF1 / RFU, TFRC / Fold change vs veh, TFRC / RFU, ZDHHC17 / Fold change vs veh, ZDHHC17 / RFU, NOM1 / Fold change vs veh, NOM1 / RFU, ARL8B / Fold change vs veh, ARL8B / RFU, ZBTB11 / Fold change vs veh, ZBTB11 / RFU, TAMM41 / Fold change vs veh, TAMM41 / RFU, KIAA1704 /// LOC100996395 / Fold change vs veh, KIAA1704 /// LOC100996395 / RFU, ING1 / Fold change vs veh, ING1 / RFU, TRMT61B / Fold change vs veh, TRMT61B / RFU, FUBP3 / Fold change vs veh, FUBP3 / RFU, TP53 / Fold change vs veh, TP53 / RFU, TNKS2 / Fold change vs veh, TNKS2 / RFU, ZFP14 / Fold change vs veh, ZFP14 / RFU, ACTR2 / Fold change vs veh, ACTR2 / RFU, PPP3R1 / Fold change vs veh, PPP3R1 / RFU, PIK3R1 / Fold change vs veh, PIK3R1 / RFU, HNRNPA1 / Fold change vs veh, HNRNPA1 / RFU, RNF170 / Fold change vs veh, RNF170 / RFU, ZNF28 / Fold change vs veh, ZNF28 / RFU, RNGTT / Fold change vs veh, RNGTT / RFU, OGT / Fold change vs veh, OGT / RFU, BRD1 / Fold change vs veh, BRD1 / RFU, MARS / Fold change vs veh, MARS / RFU, ZNF655 / Fold change vs veh, ZNF655 / RFU, FAHD1 / Fold change vs veh, FAHD1 / RFU, BDP1 / Fold change vs veh, BDP1 / RFU, LRRCC1 / Fold change vs veh, LRRCC1 / RFU, ARID1A / Fold change vs veh, ARID1A / RFU, ZNF146 / Fold change vs veh, ZNF146 / RFU, ZNF330 / Fold change vs veh, ZNF330 / RFU, GPN3 / Fold change vs veh, GPN3 / RFU, C9orf123 / Fold change vs veh, C9orf123 / RFU, N4BP2L2 / Fold change vs veh, N4BP2L2 / RFU, ARFIP1 / Fold change vs veh, ARFIP1 / RFU, FAM179B / Fold change vs veh, FAM179B / RFU, BCL10 / Fold change vs veh, BCL10 / RFU, UHRF1BP1L / Fold change vs veh, UHRF1BP1L / RFU, BET1 / Fold change vs veh, BET1 / RFU, CNOT2 / Fold change vs veh, CNOT2 / RFU, ZNF268 / Fold change vs veh, ZNF268 / Fold change vs veh, ZNF507 / RFU, DGCR2 / Fold change vs veh, DGCR2 / RFU, WDSUB1 / Fold change vs veh, WDSUB1 / Fold change vs veh, HSP90B1 /// MIR3652 / RFU, ADSS / Fold change vs veh, ADSS / RFU, GK / Fold change vs veh, GK / RFU, ZNF148 / Fold change vs veh, ZNF148 / RFU, TAF9 / Fold change vs veh, TAF9 / RFU, SLC1A5 / Fold change vs veh, SLC1A5 / RFU, SLMO2 / Fold change vs veh, SLMO2 / RFU, ABCC4 / Fold change vs veh, ABCC4 / RFU, LOC101060439 /// RAP1B / Fold change vs veh, LOC101060439 /// RAP1B / RFU, RFX7 / Fold change vs veh, RFX7 / RFU, GTPBP10 / Fold change vs veh, GTPBP10 / RFU, CNEP1R1 / Fold change vs veh, CNEP1R1 / RFU, BIVM-ERCC5 /// ERCC5 / Fold change vs veh, BIVM-ERCC5 /// ERCC5 / RFU, ILF3 / Fold change vs veh, ILF3 / RFU 11762660_at / Fold change /veh 11762660_at / RFU VCAN (11757783_s_at) / Fold change /veh VCAN (11757783_s_at) / RFU DDX43 (11728927_at) / Fold change /veh DDX43 (11728927_at) / RFU KRT8 (11758188_x_at) / Fold change /veh KRT8 (11758188_x_at) / RFU NKD1 (11759106_at) / Fold change /veh NKD1 (11759106_at) / RFU SRD5A1 (11742802_a_at) / Fold change /veh SRD5A1 (11742802_a_at) / RFU TPSAB1 /// TPSB2 (11721975_s_at) / Fold change /veh TPSAB1 /// TPSB2 (11721975_s_at) / RFU GSTM3 (11746129_a_at) / Fold change /veh GSTM3 (11746129_a_at) / RFU IL23R (11737362_x_at) / Fold change /veh IL23R (11737362_x_at) / RFU TMEM51 (11727254_a_at) / Fold change /veh TMEM51 (11727254_a_at) / RFU PIWIL2 (11732686_x_at) / Fold change /veh PIWIL2 (11732686_x_at) / RFU ORM1 (11744905_x_at) / Fold change /veh ORM1 (11744905_x_at) / RFU CCDC152 (11743942_at) / Fold change /veh CCDC152 (11743942_at) / RFU ECM1 (11717891_a_at) / Fold change /veh ECM1 (11717891_a_at) / RFU IL23R (11748794_a_at) / Fold change /veh IL23R (11748794_a_at) / RFU TNFAIP8L3 (11732012_x_at) / Fold change /veh TNFAIP8L3 (11732012_x_at) / RFU MBOAT4 (11741988_at) / Fold change /veh MBOAT4 (11741988_at) / RFU 11764193_at / Fold change /veh 11764193_at / RFU TMEM53 (11763286_at) / Fold change /veh TMEM53 (11763286_at) / RFU MAGEB2 (11727129_at) / Fold change /veh MAGEB2 (11727129_at) / RFU TMEM200A (11744735_a_at) / Fold change /veh TMEM200A (11744735_a_at) / RFU CCDC152 (11751479_a_at) / Fold change /veh CCDC152 (11751479_a_at) / RFU FAM211A (11726209_a_at) / Fold change /veh FAM211A (11726209_a_at) / RFU RGS16 (11746705_a_at) / Fold change /veh RGS16 (11746705_a_at) / RFU VCAN (11755009_s_at) / Fold change /veh VCAN (11755009_s_at) / RFU RHOB (11743442_s_at) / Fold change /veh RHOB (11743442_s_at) / RFU RGS16 (11720943_a_at) / Fold change /veh RGS16 (11720943_a_at) / RFU RGS16 (11720944_at) / Fold change /veh RGS16 (11720944_at) / RFU, VPS4B / Fold change vs veh, VPS4B / RFU, CREB1 / Fold change vs veh, CREB1 / RFU, DNAJC13 / Fold change vs veh, DNAJC13 / RFU, GNAQ / Fold change vs veh, GNAQ / RFU, CDK5R1 / Fold change vs veh, CDK5R1 / RFU, ZRANB3 / Fold change vs veh, ZRANB3 / RFU, CUL4A / Fold change vs veh, CUL4A / RFU, CCNY / Fold change vs veh, CCNY / RFU, UFL1 / Fold change vs veh, UFL1 / RFU, COG3 / Fold change vs veh, COG3 / RFU, DIAPH2 / Fold change vs veh, DIAPH2 / RFU, SKA2 / Fold change vs veh, SKA2 / RFU, AFF3 / Fold change vs veh, AFF3 / RFU, LMF1 / Fold change vs veh, LMF1 / RFU, IPO11 / Fold change vs veh, IPO11 / RFU, DFFB / Fold change vs veh, DFFB / RFU, FOXP1 / Fold change vs veh, FOXP1 / RFU, CARD8 / Fold change vs veh, CARD8 / RFU, STRN3 / Fold change vs veh, STRN3 / RFU, ADK / Fold change vs veh, ADK / RFU, RASSF2 / Fold change vs veh, RASSF2 / RFU, WIPF1 / Fold change vs veh, WIPF1 / RFU, LARP1B / Fold change vs veh, LARP1B / RFU, RASA1 / Fold change vs veh, RASA1 / RFU, RB1 / Fold change vs veh, RB1 / RFU, PPFIA1 / Fold change vs veh, PPFIA1 / RFU, MAT2A / Fold change vs veh, MAT2A / RFU, CCT5 / Fold change vs veh, CCT5 / RFU, WDR92 / Fold change vs veh, WDR92 / RFU, CUX1 / Fold change vs veh, CUX1 / RFU, TTC7A / Fold change vs veh, TTC7A / RFU, TMEM135 / Fold change vs veh, TMEM135 / RFU, DEPTOR / Fold change vs veh, DEPTOR / RFU, CPM / Fold change vs veh, CPM / RFU, DNAJB6 / Fold change vs veh, DNAJB6 / RFU, CACNA2D3 / Fold change vs veh, CACNA2D3 / RFU, DTX4 / Fold change vs veh, DTX4 / RFU, TFCP2 / Fold change vs veh, TFCP2 / RFU, GMCL1 /// GMCL1P1 / Fold change vs veh, GMCL1 /// GMCL1P1 / RFU, AEBP2 / Fold change vs veh, AEBP2 / RFU, SNHG1 /// SNORD22 /// SNORD25 /// SNORD26 /// SNORD27 /// SNORD28 /// SNORD29 /// SNORD31 / Fold change vs veh, SNHG1 /// SNORD22 /// SNORD25 /// SNORD26 /// SNORD27 /// SNORD28 /// SNORD29 /// SNORD31 / Fold change (Aza/veh), C12orf56 (ProbeSet 11735607_a_at) / Fold change (ACY-1035/veh), C12orf56 (ProbeSet 11735607_a_at) / Fold change (Aza/veh), FGFR1OP (ProbeSet 11751329_s_at) / Fold change (ACY-1035/veh), FGFR1OP (ProbeSet 11751329_s_at) / Fold change (Aza/veh), VPS36 (ProbeSet 11739960_a_at) / Fold change (ACY-1035/veh), VPS36 (ProbeSet 11739960_a_at) / RFU SYPL1 (11715823_x_at) / Fold change /veh SYPL1 (11715823_x_at) / RFU IGFBP7 (11715501_s_at) / Fold change /veh IGFBP7 (11715501_s_at) / RFU REEP3 (11722064_at) / Fold change /veh REEP3 (11722064_at) / RFU IGLL1 (11728026_x_at) / Fold change /veh IGLL1 (11728026_x_at): dose or concentration left out as unconfirmed
Settings: ProbeSet 11728879_at; LIST B

## Nc1ccc(-c2cccs2)cc1NC(=O)c1ccc2c(c1)cc(C1CC1)n2CCN1CCOCC1 [ACY-1035]
  Fold change vs veh, PPP3R1: 0.99
